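These data come from cells grown in 96-well plates and exposed to compound for 48 hours at five concentrations. Here, GI50 denotes the concentration required for 50% inhibition of growth. TGI marks complete inhibition of growth.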
Columns and labels:
Assay in all cases: inhibition of tumour cell growth, NCI panel, 48 h; in the data active = GI50 below about 0.43 µM; inactive = the rest
786-0 renal = tested on: 786-0 renal
A498 renal = tested on: A498 renal
A549 NSCLC = tested on: A549 NSCLC
ACHN renal = tested on: ACHN renal
BT-549 breast = tested on: BT-549 breast
CAKI-1 renal = tested on: CAKI-1 renal
CCRF-CEM leukemia = tested on: CCRF-CEM leukemia
COLO 205 colon = tested on: COLO 205 colon
DU-145 prostate = tested on: DU-145 prostate
EKVX NSCLC = tested on: EKVX NSCLC
HCC-2998 colon = tested on: HCC-2998 colon
HCT-116 colon = tested on: HCT-116 colon
HCT-15 colon = tested on: HCT-15 colon
HL-60(TB) leukemia = tested on: HL-60(TB) leukemia
HOP-62 NSCLC = tested on: HOP-62 NSCLC
HOP-92 NSCLC = tested on: HOP-92 NSCLC
HS 578T breast = tested on: HS 578T breast
HT29 colon = tested on: HT29 colon
IGROV1 ovarian = tested on: IGROV1 ovarian
K-562 leukemia = tested on: K-562 leukemia
KM12 colon = tested on: KM12 colon
LOX IMVI melanoma = tested on: LOX IMVI melanoma
M14 melanoma = tested on: M14 melanoma
MALME-3M melanoma = tested on: MALME-3M melanoma
MCF7 breast = tested on: MCF7 breast
MDA-MB-231 breast = tested on: MDA-MB-231 breast
MDA-MB-435 = tested on: MDA-MB-435
MDA-MB-468 breast = tested on: MDA-MB-468 breast
MOLT-4 leukemia = tested on: MOLT-4 leukemia
NCI-H226 lung = tested on: NCI-H226 lung
NCI-H23 lung = tested on: NCI-H23 lung
NCI-H460 lung = tested on: NCI-H460 lung
NCI-H522 lung = tested on: NCI-H522 lung
NCI/ADR-RES ovarian = tested on: NCI/ADR-RES ovarian
OVCAR-3 ovarian = tested on: OVCAR-3 ovarian
OVCAR-4 ovarian = tested on: OVCAR-4 ovarian
OVCAR-5 ovarian = tested on: OVCAR-5 ovarian
OVCAR-8 ovarian = tested on: OVCAR-8 ovarian
PC-3 prostate = tested on: PC-3 prostate
RPMI-8226 leukemia = tested on: RPMI-8226 leukemia
RXF 393 renal = tested on: RXF 393 renal
SF-268 CNS = tested on: SF-268 CNS
SF-295 CNS = tested on: SF-295 CNS
SF-539 CNS = tested on: SF-539 CNS
SK-MEL-2 melanoma = tested on: SK-MEL-2 melanoma
SK-MEL-28 melanoma = tested on: SK-MEL-28 melanoma
SK-MEL-5 melanoma = tested on: SK-MEL-5 melanoma
SK-OV-3 ovarian = tested on: SK-OV-3 ovarian
SN12C renal = tested on: SN12C renal
SNB-19 CNS = tested on: SNB-19 CNS
SNB-75 CNS = tested on: SNB-75 CNS
SR leukemia = tested on: SR leukemia
SW-620 colon = tested on: SW-620 colon
T-47D breast = tested on: T-47D breast
TK-10 renal = tested on: TK-10 renal
U251 CNS = tested on: U251 CNS
UACC-257 melanoma = tested on: UACC-257 melanoma
UACC-62 melanoma = tested on: UACC-62 melanoma
UO-31 renal = tested on: UO-31 renal

CC[C@@]12CC(C(=O)OC)=C3Nc4cc5c(cc4[C@@]34CCN(C[C@H]3O[C@H]31)[C@@H]24)[C@@H]1[C@H](O5)[C@@H](O)[C@@]2(CC)CC(C(=O)OC)=C3Nc4cc(OC)ccc4[C@@]34CCN1[C@@H]24
5480 nM: TGI (SK-OV-3 ovarian)
> 22800 nM: TGI (IGROV1 ovarian)
4030 nM: TGI (HCT-15 colon)
2210 nM: TGI (RPMI-8226 leukemia)
> 43700 nM: TGI (HOP-92 NSCLC)
> 44700 nM: TGI (SF-295 CNS)
> 40300 nM: TGI (MDA-MB-231 breast)
2840 nM: TGI (NCI-H522 lung)
> 26000 nM: TGI (UO-31 renal)
1950 nM: TGI (HCC-2998 colon)
1200 nM: TGI (MDA-MB-468 breast)
1270 nM: TGI (HL-60(TB) leukemia)
6010 nM: TGI (RXF 393 renal)
13400 nM: TGI (OVCAR-3 ovarian)
active: GI50 (786-0 renal) 267 nM | GI50 (BT-549 breast) 307 nM | GI50 (CAKI-1 renal) 142 nM | GI50 (CCRF-CEM leukemia) 376 nM | GI50 (COLO 205 colon) 356 nM | GI50 (HCC-2998 colon) 423 nM | GI50 (HCT-116 colon) 253 nM | GI50 (HCT-15 colon) 293 nM | GI50 (HL-60(TB) leukemia) 74.8 nM | GI50 (HOP-62 NSCLC) 313 nM | GI50 (HOP-92 NSCLC) 248 nM | GI50 (HS 578T breast) 128 nM | GI50 (HT29 colon) 228 nM | GI50 (K-562 leukemia) 218 nM | GI50 (LOX IMVI melanoma) 273 nM | GI50 (M14 melanoma) 416 nM | GI50 (MCF7 breast) 174 nM | GI50 (MDA-MB-231 breast) 330 nM | GI50 (MDA-MB-435) 320 nM | GI50 (MDA-MB-468 breast) 181 nM | GI50 (NCI-H522 lung) 182 nM | GI50 (RPMI-8226 leukemia) 136 nM | GI50 (SF-539 CNS) 416 nM | GI50 (SK-MEL-5 melanoma) 370 nM | GI50 (SK-OV-3 ovarian) 336 nM | GI50 (SNB-75 CNS) 63.1 nM | GI50 (SR leukemia) 254 nM | GI50 (TK-10 renal) 219 nM | GI50 (UACC-62 melanoma) 168 nM | GI50 (UO-31 renal) 167 nM
1250 nM: TGI (LOX IMVI melanoma)
> 13100 nM: TGI (BT-549 breast)
3830 nM: TGI (UACC-62 melanoma)
23200 nM: TGI (MOLT-4 leukemia)
> 39000 nM: TGI (SK-MEL-2 melanoma)
24700 nM: TGI (A498 renal)
2290 nM: TGI (SK-MEL-5 melanoma)
2930 nM: TGI (HCT-116 colon)
> 40400 nM: TGI (SNB-19 CNS)
20200 nM: TGI (NCI-H23 lung)
20700 nM: TGI (NCI/ADR-RES ovarian)
> 43100 nM: TGI (MALME-3M melanoma)
inactive: GI50 (A498 renal) 698 nM | GI50 (A549 NSCLC) 706 nM | GI50 (ACHN renal) 727 nM | GI50 (DU-145 prostate) 5670 nM | GI50 (EKVX NSCLC) 928 nM | GI50 (IGROV1 ovarian) 548 nM | GI50 (KM12 colon) 939 nM | GI50 (MALME-3M melanoma) 605 nM | GI50 (MOLT-4 leukemia) 1220 nM | GI50 (NCI-H226 lung) 485 nM | GI50 (NCI-H23 lung) 890 nM | GI50 (NCI-H460 lung) 1370 nM | GI50 (NCI/ADR-RES ovarian) 731 nM | GI50 (OVCAR-3 ovarian) 453 nM | GI50 (OVCAR-4 ovarian) 656 nM | GI50 (OVCAR-5 ovarian) 1520 nM | GI50 (OVCAR-8 ovarian) 736 nM | GI50 (PC-3 prostate) 657 nM | GI50 (RXF 393 renal) 1150 nM | GI50 (SF-268 CNS) 2990 nM | GI50 (SF-295 CNS) 891 nM | GI50 (SK-MEL-2 melanoma) 1610 nM | GI50 (SK-MEL-28 melanoma) 1380 nM | GI50 (SN12C renal) 1560 nM | GI50 (SNB-19 CNS) 660 nM | GI50 (SW-620 colon) 1810 nM | GI50 (T-47D breast) 466 nM | GI50 (U251 CNS) 911 nM | GI50 (UACC-257 melanoma) 436 nM
> 46500 nM: TGI (SR leukemia)
2770 nM: TGI (COLO 205 colon)
> 54000 nM: TGI (786-0 renal) | TGI (A549 NSCLC) | TGI (CAKI-1 renal) | TGI (CCRF-CEM leukemia) | TGI (DU-145 prostate) | TGI (EKVX NSCLC) | TGI (HOP-62 NSCLC) | TGI (HS 578T breast) | TGI (HT29 colon) | TGI (K-562 leukemia) | TGI (KM12 colon) | TGI (M14 melanoma) | TGI (MCF7 breast) | TGI (MDA-MB-435) | TGI (NCI-H226 lung) | TGI (NCI-H460 lung) | TGI (OVCAR-4 ovarian) | TGI (OVCAR-5 ovarian) | TGI (OVCAR-8 ovarian) | TGI (PC-3 prostate) | TGI (SF-268 CNS) | TGI (SF-539 CNS) | TGI (SK-MEL-28 melanoma) | TGI (SN12C renal) | TGI (SNB-75 CNS) | TGI (SW-620 colon) | TGI (T-47D breast) | TGI (U251 CNS) | TGI (UACC-257 melanoma)
52300 nM: TGI (TK-10 renal)
15200 nM: TGI (ACHN renal)
